Test results published in ChEMBL document CHEMBL6083183, “Discovery and Hit to Lead Optimization of Macrocyclic Peptides as Novel Tropomyosin Receptor Kinase A Antagonists” (J Med Chem, 2024).
Bridge positions count the residues as written; N and C are the ends. Square brackets hold non-standard residues; d marks the D form. Peptide text beside a SMILES is read from it. NMeF = CN[C@@H](Cc1ccccc1)C(=O)O; Sar = CNCC(=O)O

How the values were obtained:
Rattus norvegicus [1] = assay: Analgesic activity in rat Brennan's incision pain model assessed as reduction in pain at 30 mg/kg, iv administered 3 times at every 2 hrs and measured after 6 hrs; assay type: functional; parameters: scale not given: the % may be the effect or the level left
[2] = AUC in Sprague-Dawley rat at 1 umol/kg, iv administered as cassette dose measured upto 6 hrs by LC-MS/MS method; assay type: ADME, organism-based; conditions: in vivo, dose 1 µmol/kg
[3] = Stability in human serum assessed as half-life incubated for 22 to 24 hrs by LC-MS/MS method; assay type: ADME, cell-free; conditions: time 22-24 hrs
[4] = Stability in rat serum assessed as half-life incubated for 22 to 24 hrs by LC-MS/MS method; assay type: ADME, cell-free; conditions: time 22-24 hrs
[5] = Toxicity in rat at 30 mg/kg, iv administered 3 times at every 2 hrs and measured after 6 hrs; assay type: organism-based; conditions: in vivo
Rattus norvegicus [6] = assay: Analgesic activity in iv dosed rat Brennan's incision pain model assessed as reduction in pain administered 3 times at every 2 hrs and measured after 6 hrs; assay type: functional, organism-based; conditions: dose 3-30 mg/kg
[7] = Total clearance in Sprague-Dawley rat at 1 umol/kg, iv administered as cassette dose measured upto 6 hrs by LC-MS/MS method; assay type: ADME, organism-based; conditions: in vivo, dose 1 µmol/kg
Rattus norvegicus [8] = assay: Analgesic activity in rat Brennan's incision pain model assessed as reduction in pain at 10 mg/kg, iv administered 3 times at every 2 hrs and measured after 6 hrs; assay type: functional, organism-based
[9] = target: T1, High affinity nerve growth factor receptor (Homo sapiens, UniProt P04629); assay: Inhibition of human TrkA assessed as beta-galactosidase activity pretreated with NGF followed by […] and measured after 180 mins by pathhunter assay
T1 sequence (P04629 whole entry): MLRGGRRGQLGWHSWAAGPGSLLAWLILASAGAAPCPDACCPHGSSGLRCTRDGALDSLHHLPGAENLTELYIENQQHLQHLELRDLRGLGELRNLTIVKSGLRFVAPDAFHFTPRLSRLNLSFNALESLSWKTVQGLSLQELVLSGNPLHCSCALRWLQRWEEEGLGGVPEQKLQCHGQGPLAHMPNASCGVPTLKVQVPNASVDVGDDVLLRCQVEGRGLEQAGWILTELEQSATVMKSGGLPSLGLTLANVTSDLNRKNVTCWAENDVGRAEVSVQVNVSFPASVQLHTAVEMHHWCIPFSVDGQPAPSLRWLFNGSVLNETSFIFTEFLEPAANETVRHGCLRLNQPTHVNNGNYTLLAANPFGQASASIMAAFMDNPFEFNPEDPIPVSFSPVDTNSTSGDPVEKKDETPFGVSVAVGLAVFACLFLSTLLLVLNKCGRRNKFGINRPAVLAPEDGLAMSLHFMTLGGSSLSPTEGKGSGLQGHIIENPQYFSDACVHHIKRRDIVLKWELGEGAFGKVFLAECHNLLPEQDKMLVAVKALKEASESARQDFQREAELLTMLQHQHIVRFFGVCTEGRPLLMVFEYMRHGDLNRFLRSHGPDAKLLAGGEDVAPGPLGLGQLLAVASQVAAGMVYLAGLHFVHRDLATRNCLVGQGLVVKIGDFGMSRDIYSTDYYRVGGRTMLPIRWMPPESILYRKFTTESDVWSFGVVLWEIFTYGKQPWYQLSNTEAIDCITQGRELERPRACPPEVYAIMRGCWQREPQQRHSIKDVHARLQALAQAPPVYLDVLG

[10] = Stability in human serum assessed as compound degradation incubated for 22 hrs by LC-MS/MS method; assay type: ADME, cell-free
[11] = Inhibition of Fc-tagged human TrkA extracellular domain to biotinylated human NGF protein-protein interaction preincubated for 1 hr followed by NGF addition and measured after 3 hrs by ELISA
[12] = target: T1, High affinity nerve growth factor receptor; assay: Binding affinity to Fc-tagged human TrkA extracellular domain by SPR method

Row | half-life [4] [h] | IC50 [9] [nM] | Stability [10] | IC50 [11] [nM] | Kd [12] [nM] | Compound | Activity (Rattus norvegicus [1]) [%] | AUC at 6 h [2] [µM·h] | half-life [3] [h] | Activity [5] | Activity (Rattus norvegicus [6]) | clearance [7] [mL/min/kg] | Activity (Rattus norvegicus [8])
1 | 11.3 | 23 | Unstable |  |  | CC(C)C[C@@H]1NC(=O)[C@H](CCCNC(=N)N)NC(=O)CNC(=O)[C@H](Cc2ccccc2)N(C)C(=O)CNC(=O)[C@H](Cc2c[nH]c3ccccc23)NC(=O)[C@H](Cc2ccc(O)cc2)NC(=O)[C@H](CO)NC(=O)[C@H](C(C)C)NC(=O)[C@H](CO)NC(=O)[C@H](CCCCN)NC(=O)[C@H](Cc2ccccc2)NC(=O)CSC[C@@H](C(=O)N(C)CC(N)=O)NC(=O)[C@H](Cc2c[nH]cn2)NC(=O)[C@H](CC(N)=O)NC(=O)[C@H](Cc2ccc(O)cc2)NC(=O)[C@H](Cc2ccc(O)cc2)NC(=O)[C@H](CO)NC1=O ({CH2CO}-FKSVSYWG[NMeF]GRLSYYNHC[Sar]-NH2; thioether N-18) |  | 0.305 |  |  |  | 66.2 | 
2 | 47.8 | 425 |  | 10.8 | 15.9 | CC(C)C[C@@H]1NC(=O)[C@H](CC(N)=O)NC(=O)CNC(=O)[C@H](Cc2ccccc2)N(C)C(=O)CNC(=O)[C@H](Cc2c[nH]c3ccccc23)NC(=O)[C@H](Cc2ccc(O)cc2)NC(=O)[C@H](CO)NC(=O)[C@H](C(C)C)NC(=O)[C@H](CO)NC(=O)[C@H](CO)NC(=O)[C@H](Cc2ccccc2)NC(=O)CSC[C@@H](C(=O)NCC(N)=O)NC(=O)[C@H](Cc2c[nH]cn2)NC(=O)[C@H](CO)NC(=O)[C@H](Cc2ccc(O)cc2)NC(=O)[C@H](Cc2c[nH]c3ccccc23)NC(=O)[C@H](C(C)C)NC1=O ({CH2CO}-FSSVSYWG[NMeF]GNLVWYSHCG-NH2; thioether N-18) |  |  | 9.3 |  |  |  | 

Row | Compound | half-life [4] [h] | IC50 [9] [nM] | Stability [10] | IC50 [11] [nM] | Kd [12] [nM] | Activity (Rattus norvegicus [1]) [%] | AUC at 6 h [2] [µM·h] | half-life [3] [h] | Activity [5] | Activity (Rattus norvegicus [6]) | clearance [7] [mL/min/kg] | Activity (Rattus norvegicus [8])
3 | CC(C)C[C@@H]1NC(=O)[C@H](C(C)C)NC(=O)CNC(=O)[C@H](Cc2ccccc2)N(C)C(=O)CNC(=O)[C@H](Cc2c[nH]cn2)NC(=O)[C@H](Cc2ccc(O)cc2)NC(=O)[C@H](CCC(=O)O)NC(=O)[C@H](C(C)C)NC(=O)[C@H](CO)NC(=O)[C@H](CO)NC(=O)[C@H](Cc2ccccc2)NC(=O)CSC[C@@H](C(=O)NCC(N)=O)NC(=O)[C@H](Cc2c[nH]cn2)NC(=O)[C@H](CC(=O)O)NC(=O)[C@H](Cc2ccc(O)cc2)NC(=O)[C@H](Cc2c[nH]c3ccccc23)NC(=O)[C@H](C(C)C)NC1=O ({CH2CO}-FSSVEYHG[NMeF]GVLVWYDHCG-NH2; thioether N-18) | > 72 | 21 |  |  |  | 40 | 1.2 | > 72 | Non-toxic | Dose-dependent-effect | 13.9 | Active; Activity Comparable To 1 Mg/Kg Morphine
